Reference: US6248694A, “Plant growth regulator compositions” (BASF Aktiengesellschaft, priority 1999, dated 2001)

Assays:
[1] = Hygroscopicity (relative water uptake at 50 and 60% relative humidity in air); type: physicochemical
Experimental: 4) Hygroscopicity of compound 1.1 in comparison to mepiquat chloride:
Both compounds were dried to a constant dry weight in vacuum at 40° C. 48 hours. Afterwards approx. 1 g samples (two series of 3 samples each and average values) were stored under 50 and 60% relative humidity in air for 2 and/or 4 weeks. The following results in relative water uptake (wt. % w/w) were found: […]

[2] = pH in water 1 wt. % concentration; type: physicochemical; conditions: 1 wt. % in water
Source text: 5) pH in water 1 wt. % concentration 6.78

[3] = Hygroscopic nature, observation in words; type: physicochemical; conditions: solid dried at 50° C. under reduced pressure
[4] = Corrosion trial, test series 1 (DIN No. 52168, modified steel plates, 14 days)
Experimental: (§1) Comparison of (A) mepiquat chloride, with (B) a mixture of mepiquat chloride with disodium octaborate tetrahydrate (Solubor®), and (C) mepiquat pentaborate (compound 1.9) of example 13.
(§2) The tests of this example were conducted according to the method of DIN (Deutsche Industrie Norm) No. 52168, part 1 of November 1981, but using modified steel plates.
(§3) The corrosion tests were conducted on the three different formulations prepared as set forth below. Each formulation was tested with the different steel types set forth below.
(§4) The first formulation, referred to as "mepiquat chloride" in the tables below, was an 8.33% mepiquat chloride aqueous solution (by weight) prepared by diluting a 600 g/l mepiquat chloride preconcentrate. The second formulation, referred to as "mepiquat chloride plus borate salt" in the tables below, was prepared by adding 15 wt. % disodium octaborate tetrahydrate to the same 8.33% aqueous solution of mepiquat chloride as was used in the first formulation.
(§5) The third formulation, referred to as "mepiquat pentaborate"--in the tables below, was prepared from compound 1.9, example 13 by diluting with water to form a 12% mepiquat pentaborate (wt. %) aqueous solution.
(§6) All three abovementioned formulations contained equal amounts of the mepiquat cation.
(§7) One-half liter quantities of each formulation were placed in polyethylene plastic containers (10 cm×10 cm×12 cm (height)). Into each of the containers, two series of steel plate types--12×5 cm^2 (0.2 cm thickness) were inserted.
(§8) In modification of the mentioned DIN, the steel plates were prepared with an additional oxyacetylene torched area, approximately 5 to 7 mm large, horizontally in the middle of the steel plates.
(§9) The torched areas were placed below the solution's surface. (The aim of this modification of the test was to simulate a more serious corrosion and endangering situation.)
(§10) The position of the plates were such that approximately 1/3 of the plates were in air contact. After 14 days the steel plates were examined, washed and cleaned, dried and weighed according to the DIN method above.

[5] = Corrosion trial, test series 2 (DIN No. 52168, modified steel plates, 14 days)
Experimental: as §1, §2, §3, §4, §5, §6, §7, §8, §9, §10

[6] = 50% relative humidity in air, 2 weeks
[7] = 60% relative humidity in air, 2 weeks
[8] = 4 weeks at 50% relative humidity in air
[9] = 4 weeks at 60% relative humidity in air

Compound: C[N+]1(C)CCCCC1.O.O.O.O.O.O.OB(O)O.OB(O)O.OB(O)O.OB(O)O.OB(O)O.OB(O)O.OB(O)O.OB(O)O.OB(O)O.[Na+].[O-]B([O-])O [Compound 1.1, N,N-Dimethylpiperidinium sodium decaborate hexahydrate]
- Relative water uptake [1, 6]: 4.1 wt. % w/w
- Relative water uptake [1, 7]: 7.8 wt. % w/w
- pH in water 1 wt. % concentration [2]: 6.78

Compound: C[N+]1(C)CCCCC1 [N,N-dimethylpiperidiniumbicarbonate]
- Hygroscopic nature of isolated product [3]: extremely hygroscopic

Compound: C[N+]1(C)CCCCC1.[Cl-] [mepiquat chloride, N,N-dimethylpiperidinium chloride, reference compound]
- Relative water uptake [1, 6]: 52 wt. % w/w
- Relative water uptake ([1]; 50% relative humidity in air, 4 weeks): 58 wt. % w/w
- Relative water uptake [1, 7]: 71 wt. % w/w
- Relative water uptake ([1]; 60% relative humidity in air, 4 weeks): 78 wt. % w/w
- pH values, end ([4]; ST 37, end): 7.96
- pH values, initial ([4]; ST 37, initial): 7.67
- appearance of the resulting formulations ([4]; ST 37, test series 1): yellow to orange solution, cloudy, sedimentations
- pH values, end ([5]; ST 13, end): 8.34
- pH values, initial ([5]; ST 13, initial): 7.67
- appearance of the resulting formulations ([5]; ST 13, test series 2): yellow to orange solution, cloudy, sedimentations

Compound: [Dimethylpiperidinium]2^2+ [B12 Na4 O21 ]^2-×20 H2 O [Compound 1.3]
- Hygroscopicity: water uptake [1, 8]: 13.6 wt. %
- Hygroscopicity: water uptake [1, 9]: 28.8 wt. %

Compound: [Dimethylpiperidinium]2^2+ [B18 Na2 O29 ]^2-×8 H2 O [Compound 1.2]
- Hygroscopicity: water uptake [1, 8]: 5.2 wt. %
- Hygroscopicity: water uptake [1, 9]: 7.0 wt. %
- pH in water 1 wt. % concentration [2]: 7.4

Compound: [Dimethylpiperidinium]^+ [B6.4 Na0.3 O10.3 ]^-×4 H2 O [Compound 1.7]
- Hygroscopicity: water uptake [1, 8]: 1.9 wt. %
- Hygroscopicity: water uptake [1, 9]: 4.1 wt. %

Compound: [Dimethylpiperidinium]^+ [B8 (NH4)0.3 O12.7 ]^-×4 H2 O [Compound 1.5]
- Hygroscopicity: water uptake [1, 8]: 0.4 wt. %
- Hygroscopicity: water uptake [1, 9]: 0.6 wt. %
- pH in water 1 wt. % concentration [2]: 6.8

Compound: [Dimethylpiperidinium]^+ [B9 Na0.9 O14.5 ]^-×6H2 O [Compound 1.6]
- Hygroscopicity: water uptake [1, 8]: 2.7 wt. %
- Hygroscopicity: water uptake [1, 9]: 9.0 wt. %
- pH in water 1 wt. % concentration [2]: 7.1
